# Test results as given in patent US20260176320A1, “MODULATORS OF G-PROTEIN COUPLED RECEPTORS” (priority 2018, published 2026).
# Where two headings read alike, the source gives them in different places.
# Tests used:
# Format in all cases: cell-based
# GLP-1R [1] = target: T1, GLP-1R (Homo sapiens, UniProt P43220); test: HitHunter cAMP assay (GLP-1R); conditions: cAMP; for Emax: read-out: (Emax) GLP-1R
# Outline: (§1)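 cAMP, luminescence read: agonist 22-pt 2× dilution in DMSO, duplicate, 30 min RT on 10,000 cells/well in 1×HBSS/10 mM HEPES/625 μM IBMX/0.2% BSA; anti-cAMP reagent 1 h RT dark, then O/N RT dark before read.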
# GIP-R = target: T2, GIP-R (Homo sapiens, UniProt P48546); test: HitHunter cAMP assay (GIP-R); conditions: cAMP; for Emax: read-out: (Emax) GIP-R
# T2 sequence (P48546 22-466): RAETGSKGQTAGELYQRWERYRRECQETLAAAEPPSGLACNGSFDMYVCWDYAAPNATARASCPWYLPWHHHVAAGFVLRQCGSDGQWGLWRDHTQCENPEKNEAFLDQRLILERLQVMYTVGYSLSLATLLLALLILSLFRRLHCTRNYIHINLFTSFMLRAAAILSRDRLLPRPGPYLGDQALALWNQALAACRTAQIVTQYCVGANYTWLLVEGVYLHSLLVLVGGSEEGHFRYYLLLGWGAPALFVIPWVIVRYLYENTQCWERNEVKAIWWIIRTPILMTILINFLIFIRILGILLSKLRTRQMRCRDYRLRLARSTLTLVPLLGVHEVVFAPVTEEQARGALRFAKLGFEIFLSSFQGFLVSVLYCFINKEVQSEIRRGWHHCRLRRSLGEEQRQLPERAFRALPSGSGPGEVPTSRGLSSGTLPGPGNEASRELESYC
# Outline: as §1
# GLP-1R [2] = target: T1, GLP-1R; test: PathHunter β-arrestin assay
# Outline: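 Luminescence read-out of β-arrestin recruitment (enzyme-fragment complementation detection, 3 h at room temperature in the dark) after 90 min agonist stimulation at 37 °C. Agonists tested as 22-point 2× serial dilutions in duplicate, in medium containing 0.2% BSA.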
# [3] = Table 3, read-out: EC50 GLP-1R/nM
# [4] = Table 3A, read-out: EC50 GLP-1R/nM
# [5] = Table 3, read-out: EC50 GIP-R/nM
# [6] = PathHunter β-arrestin assay, read-out: β-arrestin activity EC50
# [7] = Table 3A, read-out: EC50 GIP-R/nM
# T1 sequence (P43220 24-463): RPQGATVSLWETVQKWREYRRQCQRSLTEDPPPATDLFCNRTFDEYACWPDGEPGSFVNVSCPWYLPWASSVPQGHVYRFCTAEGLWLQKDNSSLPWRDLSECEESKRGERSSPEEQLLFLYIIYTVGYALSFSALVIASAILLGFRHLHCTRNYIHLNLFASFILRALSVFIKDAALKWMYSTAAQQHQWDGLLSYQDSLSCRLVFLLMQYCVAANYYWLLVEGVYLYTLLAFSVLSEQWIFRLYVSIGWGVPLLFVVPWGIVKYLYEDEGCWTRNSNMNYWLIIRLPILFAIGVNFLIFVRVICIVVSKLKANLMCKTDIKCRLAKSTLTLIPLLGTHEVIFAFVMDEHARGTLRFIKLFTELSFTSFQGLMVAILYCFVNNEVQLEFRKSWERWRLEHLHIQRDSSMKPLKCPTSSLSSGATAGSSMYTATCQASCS
SMILES,"EC50 (GLP-1R [1]; EC50 GLP-1R/nM, Table 3)","EC50 (GLP-1R [1]; EC50 GLP-1R/nM, Table 3A)",Emax (GLP-1R [1]; Table 3),Emax (GLP-1R [1]; Table 3A),"EC50 (GIP-R; EC50 GIP-R/nM, Table 3)","EC50 (GIP-R; EC50 GIP-R/nM, Table 3A)",Emax (GIP-R; Table 3),Emax (GIP-R; Table 3A),EC50 (GLP-1R [2]),EC50 (GLP-1R [1]; [3]),EC50 (GLP-1R [1]; [4]),EC50 (GIP-R; [5]),EC50 (GLP-1R [2]; [6]),EC50 (GIP-R; [7]),"Emax at 1 µM (GIP-R; read-out: (Emax) GIP-R at 1 μM, Table 3, at 1 μM)"
CCCCCCCCCCCCCCCC(=O)N[C@@H](CCC(=O)NCCCC[C@H](NC(=O)[C@H](CO)NC(=O)[C@@H]1CCCN1C(=O)[C@@H]1CCCN1C(=O)[C@@H]1CCCN1C(=O)[C@H](C)NC(=O)CNC(=O)[C@H](CO)NC(=O)[C@H](CO)NC(=O)[C@@H]1CCCN1C(=O)CNC(=O)CNC(=O)[C@H](C)NC(=O)[C@H](CC(C)C)NC(=O)[C@H](CC(C)C)NC(=O)[C@H](Cc1c[nH]c2ccccc12)NC(=O)[C@H](CC(N)=O)NC(=O)[C@@H](NC(=O)[C@H](Cc1ccccc1)NC(=O)[C@H](CCC(=O)O)NC(=O)C(C)(C)NC(=O)[C@H](C)NC(=O)[C@H](C)NC(=O)[C@H](CCC(N)=O)NC(=O)[C@H](CCCCN)NC(=O)[C@H](CC(=O)O)NC(=O)[C@H](CC(C)C)NC(=O)[C@H](Cc1ccc(O)cc1)NC(=O)[C@@H](NC(=O)[C@H](CO)NC(=O)[C@H](Cc1ccc(O)cc1)NC(=O)[C@H](CC(=O)O)NC(=O)[C@H](CO)NC(=O)[C@@H](NC(=O)[C@H](Cc1ccccc1)NC(=O)[C@@H](NC(=O)CNC(=O)[C@H](CCC(=O)O)NC(=O)CSCC(=O)NCCN1CCNC(=O)C1=O)[C@@H](C)O)[C@@H](C)O)[C@@H](C)CC)C(C)C)C(N)=O)C(=O)O [Compound 24],0.1 to 1 nM,0.1 to 1 nM,92%,92%,1 to 10 nM,100 to 1000 nM,15%,15%,> 1000 nM,–,–,–,–,–,–
CC[C@H](C)[C@H](NC(=O)[C@H](CO)NC(=O)[C@H](Cc1ccc(O)cc1)NC(=O)[C@H](CC(=O)O)NC(=O)[C@H](CO)NC(=O)[C@@H](NC(=O)[C@H](Cc1ccccc1)NC(=O)[C@@H](NC(=O)CNC(=O)[C@H](CCC(=O)O)NC(=O)CCNC(=O)CCCN1C(=O)CSC1=O)[C@@H](C)O)[C@@H](C)O)C(=O)N[C@@H](Cc1ccc(O)cc1)C(=O)N[C@@H](CC(C)C)C(=O)N[C@@H](CC(=O)O)C(=O)N[C@@H](CCCCN)C(=O)N[C@@H](CCC(N)=O)C(=O)N[C@@H](C)C(=O)N[C@@H](C)C(=O)NC(C)(C)C(=O)N[C@@H](CCC(=O)O)C(=O)N[C@@H](Cc1ccccc1)C(=O)N[C@H](C(=O)N[C@@H](CC(N)=O)C(=O)N[C@@H](Cc1c[nH]c2ccccc12)C(=O)N[C@@H](CC(C)C)C(=O)N[C@@H](CC(C)C)C(=O)N[C@@H](C)C(=O)NCC(=O)NCC(=O)N1CCC[C@H]1C(=O)N[C@@H](CO)C(=O)N[C@@H](CO)C(=O)NCC(=O)N[C@@H](C)C(=O)N1CCC[C@H]1C(=O)N1CCC[C@H]1C(=O)N1CCC[C@H]1C(=O)N[C@@H](CO)C(=O)N[C@@H](CCCCN)C(N)=O)C(C)C [Compound 172],1 to 10 nM,1 to 10 nM,98 to 101%,98 to 101%,10 to 100 nM,10 to 100 nM,63 to 71%,63 to 71%,> 1000 nM,–,–,–,–,–,–
CCCCCCCCCCCCCCCC(=O)N[C@@H](CCC(=O)NCCCC[C@H](NC(=O)[C@H](CO)NC(=O)[C@@H]1CCCN1C(=O)[C@@H]1CCCN1C(=O)[C@@H]1CCCN1C(=O)[C@H](C)NC(=O)CNC(=O)[C@H](CO)NC(=O)[C@H](CO)NC(=O)[C@@H]1CCCN1C(=O)CNC(=O)CNC(=O)[C@H](C)NC(=O)[C@H](CC(C)C)NC(=O)[C@H](CC(C)C)NC(=O)[C@H](Cc1c[nH]c2ccccc12)NC(=O)[C@H](CC(N)=O)NC(=O)[C@@H](NC(=O)[C@H](Cc1ccccc1)NC(=O)[C@H](CCC(=O)O)NC(=O)C(C)(C)NC(=O)[C@H](C)NC(=O)[C@H](C)NC(=O)[C@H](CCC(N)=O)NC(=O)[C@H](CCCCN)NC(=O)[C@H](CC(=O)O)NC(=O)[C@H](CC(C)C)NC(=O)[C@H](Cc1ccc(O)cc1)NC(=O)[C@@H](NC(=O)[C@H](CO)NC(=O)[C@H](Cc1ccc(O)cc1)NC(=O)[C@H](CC(=O)O)NC(=O)[C@H](CO)NC(=O)[C@@H](NC(=O)[C@H](Cc1ccccc1)NC(=O)[C@@H](NC(=O)CNC(=O)[C@H](CCC(=O)O)NC(=O)CSCC(=O)NCCN1CCNC(=O)C1)[C@@H](C)O)[C@@H](C)O)[C@@H](C)CC)C(C)C)C(N)=O)C(=O)O [Compound 37],–,–,110%,110%,–,–,10 to 21%,10 to 21%,–,< 1 nM,< 1 nM,1 to 10 nM,> 1000 nM,–,–
CCCCCCCCCCCCCCCC(=O)N[C@@H](CCC(=O)NCCCC[C@H](NC(=O)[C@H](CO)NC(=O)[C@@H]1CCCN1C(=O)[C@@H]1CCCN1C(=O)[C@@H]1CCCN1C(=O)[C@H](C)NC(=O)CNC(=O)[C@H](CO)NC(=O)[C@H](CO)NC(=O)[C@@H]1CCCN1C(=O)CNC(=O)CNC(=O)[C@H](C)NC(=O)[C@H](CC(C)C)NC(=O)[C@H](CC(C)C)NC(=O)[C@H](Cc1c[nH]c2ccccc12)NC(=O)[C@H](CC(N)=O)NC(=O)[C@@H](NC(=O)[C@H](Cc1ccccc1)NC(=O)[C@H](CCC(=O)O)NC(=O)C(C)(C)NC(=O)[C@H](C)NC(=O)[C@H](C)NC(=O)[C@H](CCC(N)=O)NC(=O)[C@H](CCCCN)NC(=O)[C@H](CC(=O)O)NC(=O)[C@H](CC(C)C)NC(=O)[C@H](Cc1ccc(O)cc1)NC(=O)[C@@H](NC(=O)[C@H](CO)NC(=O)[C@H](Cc1ccc(O)cc1)NC(=O)[C@H](CC(=O)O)NC(=O)[C@H](CO)NC(=O)[C@@H](NC(=O)[C@H](Cc1ccccc1)NC(=O)[C@@H](NC(=O)CNC(=O)[C@H](CCC(=O)O)NC(=O)[C@@H](C)NC(=O)CN1CCCCC1=O)[C@@H](C)O)[C@@H](C)O)[C@@H](C)CC)C(C)C)C(N)=O)C(=O)O [Compound 213],–,–,–,90%,–,–,–,59%,–,–,< 0.1 nM,–,10 to 1000 nM,0.1 to 1 nM,–
CC[C@H](C)[C@H](NC(=O)[C@H](CO)NC(=O)[C@H](Cc1ccc(O)cc1)NC(=O)[C@H](CC(=O)O)NC(=O)[C@H](CO)NC(=O)[C@@H](NC(=O)[C@H](Cc1ccccc1)NC(=O)[C@@H](NC(=O)CNC(=O)[C@H](CCC(=O)O)NC(=O)CNC(=O)CCCCN1C(=O)CSC1=O)[C@@H](C)O)[C@@H](C)O)C(=O)N[C@@H](Cc1ccc(O)cc1)C(=O)N[C@@H](CC(C)C)C(=O)N[C@@H](CC(=O)O)C(=O)N[C@@H](CCCCN)C(=O)N[C@@H](CCC(N)=O)C(=O)N[C@@H](C)C(=O)N[C@@H](C)C(=O)NC(C)(C)C(=O)N[C@@H](CCC(=O)O)C(=O)N[C@@H](Cc1ccccc1)C(=O)N[C@H](C(=O)N[C@@H](CC(N)=O)C(=O)N[C@@H](Cc1c[nH]c2ccccc12)C(=O)N[C@@H](CC(C)C)C(=O)N[C@@H](CC(C)C)C(=O)N[C@@H](C)C(=O)NCC(=O)NCC(=O)N1CCC[C@H]1C(=O)N[C@@H](CO)C(=O)N[C@@H](CO)C(=O)NCC(=O)N[C@@H](C)C(=O)N1CCC[C@H]1C(=O)N1CCC[C@H]1C(=O)N1CCC[C@H]1C(=O)N[C@@H](CO)C(=O)N[C@@H](CCCCN)C(N)=O)C(C)C [Compound 171],–,–,93 to 98%,93 to 98%,–,–,–,–,–,1 to 10 nM,1 to 10 nM,> 1000 nM,> 1000 nM,> 1000 nM,6.5%
CC[C@H](C)[C@H](NC(=O)[C@H](CO)NC(=O)[C@H](Cc1ccc(O)cc1)NC(=O)[C@H](CC(=O)O)NC(=O)[C@H](CO)NC(=O)[C@@H](NC(=O)[C@H](Cc1ccccc1)NC(=O)[C@@H](NC(=O)CNC(=O)[C@H](CCC(=O)O)NC(=O)CSCC(=O)NCCCN1C(=O)c2ccccc2C1=O)[C@@H](C)O)[C@@H](C)O)C(=O)N[C@@H](Cc1ccc(O)cc1)C(=O)N[C@@H](CC(C)C)C(=O)N[C@@H](CC(=O)O)C(=O)N[C@@H](CCCCN)C(=O)N[C@@H](CCC(N)=O)C(=O)N[C@@H](C)C(=O)N[C@@H](C)C(=O)NC(C)(C)C(=O)N[C@@H](CCC(=O)O)C(=O)N[C@@H](Cc1ccccc1)C(=O)N[C@H](C(=O)N[C@@H](CC(N)=O)C(=O)N[C@@H](Cc1c[nH]c2ccccc12)C(=O)N[C@@H](CC(C)C)C(=O)N[C@@H](CC(C)C)C(=O)N[C@@H](C)C(=O)NCC(=O)NCC(=O)N1CCC[C@H]1C(=O)N[C@@H](CO)C(=O)N[C@@H](CO)C(=O)NCC(=O)N[C@@H](C)C(=O)N1CCC[C@H]1C(=O)N1CCC[C@H]1C(=O)N1CCC[C@H]1C(=O)N[C@@H](CO)C(=O)N[C@@H](CCCCN)C(N)=O)C(C)C [Compound 180],–,–,94%,94%,–,–,84%,84%,–,10 to 100 nM,10 to 100 nM,10 to 100 nM,> 1000 nM,10 to 100 nM,–
